Source: patent publication US11912679B2, “Aryl alkynamide derivatives” (Astellas Pharma, Inc., priority 2022, dated 2024)
Where a name gives a salt, the structure may show the parent alone.

System: IRF pathway of THP-1
Assay: Test on the activity of IRF pathway of THP-1 (THP1-Dual reporter cells stimulated with 2'3'-cGAMP)
Assay type: cell-based
Conditions: Homo sapiens, PMA-treated, 2'3'-cGAMP 5 ug/mL, QUANTI-Luc readout, read-out: IC50 of inhibition of the activity of IRF pathway
Protocol: 0.3 uM of PMA (phorbol myristate acetate, SIGMA, P1585) was added to THP1-Dual™ cells (NF-κB-SEAP IRF-Luc Reporter Monocytes, Invivogen, thpd-nfis), and the cells were cultured at 37° C. for 1 day in RPMI1640 with 10% Fetal Bovine Serum (FBS). A compound with a known concentration was added, and the cells were incubated at room temperature for 1 hour. Mammalian (non-canonical) CDN, cyclic [G(2′,5′)pA(3′,5′)p] (2′3′-cGAMP, Invivogen, tlrl-nacga23) was added to a final concentration of 5 ug/mL, and the cells were cultured at 37° C. On the following day, QUANTI-Luc™ (Secreted luciferase detection medium, Invivogen, rep-qlc) was added to the culture solution and the activity of IRF pathway was measured using a microplate reader. The inhibition ratio at each concentration was determined, where the activity of IRF pathway with no addition of the test compound or 2′3′-cGAMP was defined as 100% inhibition and the activity of IRF pathway with no addition of the test compound and with addition of 2′3′-cGAMP was defined as 0% inhibition. The IC50 value was calculated by sigmoid […] model non-linear regression analysis.

Row | Compound | IC50
1 | O=C(C#Cc1ccc(-c2ccc(OC(F)F)cc2)c(C(F)(F)F)c1)N[C@H]1COC[C@@H]1O [Example 62] | 594 nM
2 | O=C(C#Cc1ccc(-c2ccc(OC(F)F)cc2)c(C(F)(F)F)c1)N[C@@H]1COC[C@H]1O [Example 63] | 422 nM
3 | O=C(C#Cc1ccc(-c2cccc(OC(F)F)c2)c(C(F)(F)F)c1)N1C[C@@H](O)[C@@H](O)C1 [Example 64] | 448 nM
4 | O=C(C#Cc1ccc(-c2cccc(OC(F)F)c2)c(C(F)(F)F)c1)N1C[C@@H](O)[C@H](O)C1 [Example 65] | 340 nM
5 | O=C(C#Cc1ccc(-c2ccccc2OC(F)(F)F)c(C(F)(F)F)c1)N1C[C@@H](O)[C@H](O)C1 [Example 66] | 48 nM
6 | O=C(C#Cc1ccc(-c2ccccc2OC(F)(F)F)c(C(F)(F)F)c1)N[C@H]1COC[C@@H]1O [Example 67] | 38 nM
7 | O=C(C#Cc1ccc(-c2ccccc2OC(F)(F)F)c(C(F)(F)F)c1)N[C@@H]1COC[C@H]1O [Example 68] | 64 nM
8 | O=C(C#Cc1ccc(-c2ccccc2OC(F)(F)F)c(C(F)(F)F)c1)NCCO [Example 69] | 190 nM
9 | O=C(C#Cc1ccc(-c2ccccc2OC(F)(F)F)c(C(F)(F)F)c1)N1C[C@H](O)[C@@H](O)C1 [Example 70] | 35 nM
10 | O=C(C#Cc1ccc(-c2ccccc2OC(F)(F)F)c(C(F)(F)F)c1)N1C[C@@H](O)[C@@H](O)C1 [Example 71] | 43 nM
11 | O=C(C#Cc1ccc(-c2ccccc2OC(F)(F)F)c(C(F)(F)F)c1)N[C@@H]1COC[C@@H]1O [Example 72] | 1210 nM
12 | O=C(C#Cc1ccc(-c2ccccc2OC(F)(F)F)c(C(F)(F)F)c1)N[C@H]1COC[C@H]1O [Example 73] | 99 nM
13 | O=C(C#Cc1ccc(-c2ccccc2OC(F)(F)F)c(C(F)(F)F)c1)NC[C@@H](O)CO [Example 74] | 48 nM
14 | O=C(C#Cc1ccc(-c2ccccc2OC(F)(F)F)c(C(F)(F)F)c1)NC[C@H](O)CO [Example 75] | 73 nM
15 | CN(CCO)C(=O)C#Cc1ccc(-c2ccccc2OC(F)(F)F)c(C(F)(F)F)c1 [Example 76] | 76 nM
16 | O=C(C#Cc1ccc(-c2ccccc2OC(F)(F)F)c(C(F)(F)F)c1)N1CC(O)C1 [Example 77] | 91 nM
17 | O=C(C#Cc1ccc(-c2ccccc2OC(F)(F)F)c(C(F)(F)F)c1)N1CC(O)(CO)C1 [Example 78] | 51 nM
18 | O=C(C#Cc1ccc(-c2ccc(OC(F)F)cc2)c(C(F)(F)F)c1)N1C[C@@H](O)[C@@H](O)C1 [Example 79] | 185 nM
19 | O=C(C#Cc1ccc(-c2ccc(OC(F)F)cc2)c(C(F)(F)F)c1)N[C@H]1COC[C@H]1O [Example 80] | 539 nM
20 | O=C(C#Cc1ccc(-c2cccc(OC(F)F)c2)c(C(F)(F)F)c1)N[C@@H]1COC[C@@H]1O [Example 81] | 37 nM

Row | Compound | IC50
21 | O=C(C#Cc1ccc(-c2cccc(OC(F)F)c2)c(C(F)(F)F)c1)N[C@H]1COC[C@H]1O [Example 82] | 239 nM
22 | O=C(C#Cc1ccc(-c2ccc(OC(F)F)cc2)c(C(F)(F)F)c1)N[C@@H]1COC[C@@H]1O [Example 83] | 430 nM
23 | O=C(C#Cc1ccc(-c2ccc(Cl)cc2)c(C(F)(F)F)c1)N1C[C@@H](O)[C@@H](O)C1 [Example 84] | 435 nM
24 | O=C(C#Cc1cnc(-c2ccc(C(F)(F)F)cc2)c(C(F)(F)F)c1)N1C[C@@H](O)[C@@H](O)C1 [Example 85] | 224 nM
25 | O=C(C#Cc1cnn(-c2ccc(F)cc2)c1C(F)(F)F)N1C[C@@H](O)[C@@H](O)C1 [Example 86] | 8040 nM
26 | O=C(C#Cc1ccc(-c2ccccn2)cc1)N(CCO)c1ccccc1 [Example 87, N-(2-hydroxyethyl)-N-phenyl-3-[4-(pyridin-2-yl)phenyl]prop-2-ynamide] | 1610 nM
27 | CN1CCN(C(=O)C#Cc2ccc(-c3ccncc3)cc2)CC1 [Example 88, 1-(4-methylpiperazin-1-yl)-3-[4-(pyridin-4-yl)phenyl]prop-2-yn-1-one] | 5550 nM
28 | O=C(C#Cc1ccc(-c2cccnc2)cc1)N(CCO)c1ccccc1 [Example 89] | 1690 nM
29 | O=C(C#Cc1ccc(-c2ccccc2)c(C(F)(F)F)c1)Nc1cccc(C(=O)O)c1 [Example 90, 3-({3-[2-(trifluoromethyl)[1,1′-biphenyl]-4-yl]prop-2-ynoyl}amino)benzoic acid] | 471 nM
30 | O=C(O)CCN1CCN(C(=O)C#Cc2ccc(-c3ccccc3)c(C(F)(F)F)c2)CC1 [Example 91, 3-(4-{3-[2-(trifluoromethyl)[1,1′-biphenyl]-4-yl]prop-2-ynoyl}piperazin-1-yl)propanoic acid monohydrochloride] | 600 nM
31 | O=C(O)c1ccc2c(c1)N(C(=O)C#Cc1ccc(-c3ccccc3)c(C(F)(F)F)c1)CC2 [Example 92, 1-{3-[2-(trifluoromethyl)[1,1′-biphenyl]-4-yl]prop-2-ynoyl}-2,3-dihydro-1H-indole-6-carboxylic acid] | 767 nM
32 | O=C(O)CCCN1CCN(C(=O)C#Cc2ccc(-c3ccccc3)c(C(F)(F)F)c2)CC1 [Example 93] | 919 nM
33 | O=C(O)C1CCN(C(=O)C#Cc2ccc(-c3ccccc3)c(C(F)(F)F)c2)C1 (stereo not drawn) [Example 94] | 11800 nM
34 | CN1CCN(C(=O)C#Cc2cnn(-c3ccc(C(F)(F)F)cc3)c2)CC1 [Example 95, 1-(4-methylpiperazin-1-yl)-3-{1-[4-(trifluoromethyl)phenyl]-1H-pyrazol-4-yl}prop-2-yn-1-one] | 1440 nM
35 | O=C(C#Cc1ccc(-c2ccccc2)c(CN2CCCCC2)c1)N(C[C@@H](O)CO)c1ccccc1 [Example 96, N-[(2R)-2,3-dihydroxypropyl]-N-phenyl-3-{2-[(piperidin-1-yl)methyl][1,1′-biphenyl]-4-yl}prop-2-ynamide] | 80 nM
36 | O=C(C#Cc1ccc(-c2ccccc2)c(CN2CCOCC2)c1)NC[C@H](O)CO [Example 97] | 4610 nM
37 | COC1CCN(Cc2cc(C#CC(=O)NC[C@H](O)CO)ccc2-c2ccccc2)CC1 [Example 98] | 2570 nM
38 | N[C@H]1CCN(C(=O)C#Cc2ccc(-c3ccccc3)c(C(F)(F)F)c2)C1 [Example 100, 1-[(3S)-3-aminopyrrolidin-1-yl]-3-[2-(trifluoromethyl)[1,1′-biphenyl]-4-yl]prop-2-yn-1-one monooxalate] | 125 nM
39 | N[C@@H]1CCN(C(=O)C#Cc2ccc(-c3ccccc3)c(C(F)(F)F)c2)C1 [Example 101] | 190 nM
40 | CN1CC2(C1)CN(C(=O)C#Cc1ccc(-c3ccccc3)cc1)C2 [Example 102] | 842 nM

Row | Compound | IC50
41 | O=C(C#Cc1ccc(-c2ccccc2)c(C(F)(F)F)c1)N1CC[C@H](O)C1 [Example 103] | 402 nM
42 | O=C(C#Cc1ccc(C2CCOCC2)c(C(F)(F)F)c1)N1C[C@@H](O)[C@@H](O)C1 [Example 104] | 1790 nM
43 | CC(C)(C)n1cc(-c2ccc(C#CC(=O)N3C[C@@H](O)[C@@H](O)C3)cc2C(F)(F)F)cn1 [Example 105] | 620 nM
44 | O=C(C#Cc1ccc(-c2ccccc2)c(C(F)(F)F)c1)N[C@H]1C[C@@H](O)[C@@H](O)C1 [Example 106, N-[(1r,3R,4S)-3,4-dihydroxycyclopentyl]-3-[2-(trifluoromethyl)[1,1′-biphenyl]-4-yl]prop-2-ynamide] | 358 nM
45 | O=C(C#Cc1ccc(-c2ccccc2)c(C(F)(F)F)c1)N[C@@H]1C[C@@H](O)[C@@H](O)C1 [Example 107] | 489 nM
46 | O=C(C#Cc1ccc(-c2ccccc2)c(C(F)(F)F)c1)N1CC[C@@H](O)C1 [Example 108] | 263 nM
47 | O=C(C#Cc1ccc(-c2ccccc2C(F)(F)F)c(Cl)c1)N1C[C@@H](O)[C@@H](O)C1 [Example 109] | 112 nM
48 | CN(C)c1cc(C#CC(=O)N2C[C@@H](O)[C@@H](O)C2)ccc1-c1ccccc1C(F)(F)F [Example 110] | 1210 nM
49 | COc1cc(C#CC(=O)N2C[C@@H](O)[C@@H](O)C2)ccc1-c1ccccc1C(F)(F)F [Example 111] | 1050 nM
50 | Cc1cc(C#CC(=O)N2C[C@@H](O)[C@@H](O)C2)ccc1-c1ccccc1C(F)(F)F [Example 112] | 887 nM
51 | O=C(C#Cc1ccc(-c2ccccc2)c(OC(F)F)c1)NC[C@H](O)CO [Example 113] | 698 nM
52 | O=C(C#Cc1ccc(-c2ccccc2)c(C(F)(F)F)c1)NCCNS(=O)(=O)CCO [Example 114] | 339 nM
53 | O=C(C#Cc1cn(-c2ccc(F)cc2)c(C(F)(F)F)n1)NC[C@H](O)CO [Example 115] | 4940 nM
54 | O=C(C#Cc1cnc(-c2ccccc2C(F)(F)F)cn1)N1C[C@@H](O)[C@@H](O)C1 [Example 116] | 428 nM
55 | O=C(C#Cc1ccc(-c2ccccc2C(F)(F)F)c2ncccc12)N1C[C@@H](O)[C@@H](O)C1 [Example 117] | 2830 nM
56 | O=C(C#Cc1ccc(-c2ccccc2C(F)(F)F)nn1)N1C[C@@H](O)[C@@H](O)C1 [Example 118] | 838 nM
57 | NC(=O)c1cc(C#CC(=O)N2C[C@@H](O)[C@@H](O)C2)ccc1-c1ccccc1C(F)(F)F [Example 119, 4-{3-[(3R,4S)-3,4-dihydroxypyrrolidin-1-yl]-3-oxoprop-1-yn-1-yl}-2′-(trifluoromethyl)[1,1′-biphenyl]-2-carboxamide] | 5260 nM
58 | N#Cc1cc(C#CC(=O)N2C[C@@H](O)[C@@H](O)C2)ccc1-c1ccccc1 [Example 120] | 324 nM
59 | O=C(C#Cc1ccc(-c2ccccc2)c(O)c1)N1C[C@@H](O)[C@@H](O)C1 [Example 121] | 7780 nM
60 | COc1ncc(-c2ccc(C#CC(=O)N3C[C@@H](O)[C@@H](O)C3)cc2C(F)(F)F)cn1 [Example 122] | 3100 nM
